Counter-ions that a name gives are not always drawn.
Assays:
[1] = system: patients with relapsed small cell lung cancer; assay: Multicenter, randomized, double-blind, placebo-controlled phase II clinical study; format: in vivo, human
Procedure: A multicenter, randomized, double-blind and placebo-controlled phase II clinical study was conducted for patients with relapsed small cell lung cancer characterized by presence of measurable lesions and prior standard treatment. In this study; 120 patients were enrolled and randomized to receive oral administration of 1 capsule of the dihydrochloride of the compound of formula I at 12 mg/0 mg once daily. The oral administration was continued for 2 weeks and interrupted for 1 week, i.e., 1 treatment cycle took 3 weeks (21 days). These patients aged 18-75 were treated with the capsule of the dihydrochloride of the compound of formula I and placebo control, and patients who had previously used other targeted drugs (such as sunitinib, bevacizumab, and endostar) and immunotargeted drugs were excluded. In the case of progressive disease (PD) determined by the response evaluation criteria or judged clinically; treatment with other anti-tumor drugs (such as chemotherapy; targeted therapy or biological agent therapy) influencing the judgment of efficacy; unexpected pregnancy; death and the like, the administration was interrupted (terminated) for a subject. For patients with disease under control (CR+PR+SD) and tolerable adverse reactions, the administration was continued. For patients who were unsuitable for continued administration judged by the investigator or were evaluated as PD according to RECIST 1.1 criteria, the administration was terminated. During the administration, depending on the drug-related toxicity degree and the possible efficacy benefit of a patient, the investigator determined whether to adjust the dosage, and the adjustable dosage was 8 mg/0 mg or 10 mg/0 mg. The primary efficacy endpoint was progression-free survival (PFS), and the secondary efficacy endpoints were overall survival (OS), objective response rate (ORR) (CR+PR), disease control rate (DCR) (CR+PR+SD), quality of life score and safety: The objective efficacy endpoint was evaluated according to the response evaluation criteria in solid tumor (RECIST 1.1). All statistical analyses were conducted using the SAS 9.2 statistical analysis software programming. All statistical tests were conducted using bilateral test. When P value≤0.05, the tested difference was considered statistically significant, with the confidence interval being 95% confidence. For the primary efficacy endpoint PFS, 50% (median) PFS and PFS at different time points after the start of the treatment were calculated by using the product limit method according to the data situation, and the two groups were compared using Log-Rank test. For OS, 50% (median) OS was calculated by using the product limit method according to the data situation, and the two groups were compared using Log-Rank test. The full analysis set (FAS) was used for the statistical dataset.

[2] = system: small cell lung cancer with liver and brain metastases; assay: Case of a patient with small cell lung cancer with liver and brain metastases (CT follow-up); format: in vivo, human
Procedure: A person was pathologically diagnosed with small cell lung cancer of the left lower lobe in October 2013 after surgery. On Dec. […] The patient was admitted to the hospital for one cycle of liposomal paclitaxel+carboplatin+temozolomide chemotherapy and was discharged on December 28.
One cycle of TC regimen (paclitaxel+carboplatin) was started on Jan. 17, 2017, and the efficacy was evaluated as PD on Feb. 10, 2017. One cycle of IP regimen (irinotecan 120 mg d1, 80 mg d8; cisplatin 100 mg d1) was started on Feb. 16, 2017.
On May 12, 2017, oral administration of a capsule of the dihydrochloride of the compound of formula I at 12 mg was started once daily for 2 weeks and interrupted for 1 week, every 3-week as one treatment cycle until PD or intolerance.
The CT results were as follows: • After the first treatment cycle: target lesion: 63 mm; non-target lesions: non-CR/non-PD. • After the second treatment cycle: target lesion: 65 mm; non-target lesions: non-CR/non-PD. • After the fourth treatment cycle: target lesion: 66 mm; non-target lesions: non-CR/non-PD. • After the sixth treatment cycle: target lesion: 72 mm; non-target lesions: non-CR/non-PD. 1-20. (canceled)

[3] = CR or PR achieved with second-line chemotherapy: No
[4] = CR or PR achieved with second-line chemotherapy: Yes
[5] = all patients, FAS, capsule 12 mg oral once daily, 2 weeks on / 1 week off
[6] = brain metastasis upon enrollment: Yes
[7] = clinical stage before randomization: extended stage
[8] = after the fourth treatment cycle
[9] = after the second treatment cycle
[10] = after the sixth treatment cycle

Compound: COc1cc2c(Oc3ccc4[nH]c(C)cc4c3F)ccnc2cc1OCC1(N)CC1 [1-[[[4-(4-fluoro-2-methyl-1H-indol-5-yl)oxy-6-methoxyquinolin-7-yl]oxy]methyl]cyclopropylamine dihydrochloride]
- Overall survival P50 [1, 3]: 7.29 month
- Progression-free survival P50 [1, 3]: 4.11 month
- Overall survival P50 [1, 4]: 6.80 month
- Progression-free survival P50 [1, 4]: 2.79 month
- Overall survival of patients (OS), Median (95% CI) [1, 5]: 7.29(6.50, 10.51) month
- Progression-free survival of patients (PFS), Median (95% CI) [1, 5]: 4.07(2.79, 4.24) month
- Overall survival P50 ([1]; brain metastasis upon enrollment: No): 8.80 month
- Overall survival P50 [1, 6]: 6.08 month
- Progression-free survival P50 [1, 6]: 3.84 month
- Overall survival P50 ([1]; chemotherapy line: second-line): 7.29 month
- Progression-free survival P50 ([1]; chemotherapy line: second-line): 4.11 month
- Overall survival P50 [1, 7]: 8.05 month
- Progression-free survival P50 [1, 7]: 3.84 month
- Progression-free survival P50 ([1]; clinical stage before randomization: limited stage): 4.83 month
- Progression-free survival P50 ([1]; treated with docetaxel: No): 4.07 month
- Progression-free survival P50 ([1]; treated with docetaxel: Yes): 2.83 month
- Progression-free survival P50 ([1]; treated with irinotecan + platinum: No): 2.83 month
- Progression-free survival P50 ([1]; treated with irinotecan + platinum: Yes): 4.07 month
- Progression-free survival P50 ([1]; treated with paclitaxel: No): 4.11 month
- Progression-free survival P50 ([1]; treated with paclitaxel: Yes): 2.86 month
- target lesion (CT) ([2]; after the first treatment cycle, liver nodes, 64 mm before treatment, 12 mg once daily 2 weeks on / 1 week off): 63 mm
- non-target lesions (CT) ([2]; after the first treatment cycle, multiple metastases in the brain): non-CR/non-PD
- non-target lesions (CT) [2, 8]: non-CR/non-PD
- target lesion (CT) [2, 8]: 66 mm
- non-target lesions (CT) [2, 9]: non-CR/non-PD
- target lesion (CT) [2, 9]: 65 mm
- non-target lesions (CT) [2, 10]: non-CR/non-PD
- target lesion (CT) [2, 10]: 72 mm
- tolerability of the administration ([2]; capsule 12 mg oral once daily, 2 weeks on / 1 week off): well tolerated

From patent publication US20250367187A1, “QUINOLINE DERIVATIVE USED FOR TREATING SMALL CELL LUNG CANCER” (CHIA TAI TIANQING PHARMACEUTICAL GROUP CO., LTD., priority 2018, published 2025)
